Source: patent US20250129073A1, “INHIBITOR OF RECEPTOR-INTERACTING PROTEIN KINASE 1, AND PREPARATION METHOD AND USE THEREFOR” (CHINA PHARMACEUTICAL UNIVERSITY, priority 2021, published 2025)

Biological target: RIPK1 kinase (Homo sapiens (Human), UniProt Q13546)
Test: RIPK1 kinase inhibitory assay (ADP-Glo)
Type: biochemical
Conditions: not given
Procedure: Materials and Instruments: ADP-Glo kinase kit (purchased from Promega), RIPK1 GST-Th-Tag (purchased from Bps Bioscience), MBP substrate (purchased from Millipore), nunc 384-well plate, ATP fluorescence analyzer Paradigm detection platform (purchased from Beckman coulter)
The compounds were diluted in DMSO and configured into a solution with a final concentration of 10 mM; Dilute RIP1 kinase from 140 ng/μL to 20 ng/μL for use. Dilute 10 mM of ATP to 100 μM for later use; Dilute 5 mg/mL of MBP to 1 mg/mL for later use. Appropriate embodiments were added into the well of the 384-well plate, 10 μl […] ATP was evenly mixed with 1 μl 1 mg/mL MB P, the mixed solution was added to the well, and 2 μL […] RIP1 kinase was added to the hole, and then incubated at room temperature for 1 h. Subsequently, 5 μL ADP-Glo reagent was added to each well and incubated at room temperature for 40 min. Then, 10 μL ADP-Glo detection reagent was added to each well and incubated at room temperature for 30 min. Finally, the RLU value (relative light unit) of each well was measured by ATP fluorometer, and each sample was repeated twice. Inhibition rate=(RLU value of blank group−RLU value of drug administration group)/RLU value of blank group×100%.

Chain of RIPK1 kinase (Q13546 whole entry): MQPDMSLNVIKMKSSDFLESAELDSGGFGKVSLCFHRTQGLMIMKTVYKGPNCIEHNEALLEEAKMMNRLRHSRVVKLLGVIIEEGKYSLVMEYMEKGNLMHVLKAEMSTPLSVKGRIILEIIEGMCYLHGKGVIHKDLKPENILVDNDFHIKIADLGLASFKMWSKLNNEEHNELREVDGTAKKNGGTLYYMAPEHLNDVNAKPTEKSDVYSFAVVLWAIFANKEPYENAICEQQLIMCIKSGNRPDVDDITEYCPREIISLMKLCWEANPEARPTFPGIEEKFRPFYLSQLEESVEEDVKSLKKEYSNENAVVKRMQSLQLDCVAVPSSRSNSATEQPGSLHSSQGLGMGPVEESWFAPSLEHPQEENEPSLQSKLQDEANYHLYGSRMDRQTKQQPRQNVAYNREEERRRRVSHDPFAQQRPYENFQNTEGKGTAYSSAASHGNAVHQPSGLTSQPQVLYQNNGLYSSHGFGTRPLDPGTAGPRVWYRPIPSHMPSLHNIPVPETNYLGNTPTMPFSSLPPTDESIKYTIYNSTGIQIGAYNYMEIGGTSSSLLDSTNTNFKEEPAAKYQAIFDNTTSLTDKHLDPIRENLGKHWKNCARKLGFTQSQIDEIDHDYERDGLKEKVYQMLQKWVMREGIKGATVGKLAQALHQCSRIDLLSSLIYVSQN

| SMILES | IC50 [µM] |
| --- | --- |
| CN1C(=O)C(Cc2c[nH]c3ccccc23)NC1=S (stereo not drawn) [Nec-1, reference compound] | 1.14 |

Same assay, conditions: 10 μM compound; read-out: Inhibition rate of RIPK1 at 10 μM (%)

| SMILES | inhibition at 10 µM [%] |
| --- | --- |
| CN1CCC2(CC1)CCN(Cc1ccccc1)C2=O [Compound 21, 2-benzyl-8-methyl-2,8-diazaspiro[4.5]decan-1-one] | 5 |
| O=C(c1ccccc1)N1CCC2(C=NN(Cc3ccccc3F)C2=O)CC1 [Compound 63, 8-benzoyl-2-(2-fluorobenzyl)-2,3,8-triazaspiro[4.5]dec-3-en-1-one] | > 50 |
| N#Cc1cc(N2CCC3(CCN(Cc4cc(F)ccc4F)C3=O)CC2)ncn1 [Compound 58, 6-(2-(2,5-difluorobenzyl)-1-oxo-2,8-diazaspiro[4.5]decan-8-yl)pyrimidine-4-carbonitrile] | > 50 |
| O=C(c1ccccc1)N1CCC2(CC1)CCN(CC1CCCC1)C2=O [Compound 12, 8-benzoyl-2-(cyclopentylmethyl)-2,8-diazaspiro[4.5]decan-1-one] | > 50 |
| Cc1nnc(N2CCC3(CCN(Cc4cc(F)ccc4F)C3=O)CC2)o1 [Compound 55, 2-(2,5-difluorobenzyl)-8-(5-methyl-1,3,4-oxadiazol-2-yl)-2,8-diazaspiro[4.5]decan-1-one] | 13 |
| Cn1cc(C(=O)N2CCC3(CC2)CCN(Cc2ccccc2)C3=O)c2ccccc21 [Compound 27, 2-benzyl-8-(1-methyl-1H-indole-3-carbonyl)-2,8-diazaspiro[4.5]decan-1-one] | 46 |
| N#Cc1ccc(N2CCC3(CCN(Cc4cc(F)ccc4F)C3=O)CC2)nn1 [Compound 56, 6-(2-(2,5-difluorobenzyl)-1-oxo-2,8-diazaspiro[4.5]decan-8-yl)pyridazine-3-carbonitrile] | 17 |
| O=C(c1cnco1)N1CCC2(CC1)CCN(Cc1ccccc1F)C2=O [Compound 30, 2-(2-fluorobenzyl)-8-(oxazole-5-carbonyl)-2,8-diazaspiro[4.5]decan-1-one] | > 50 |
| O=C(c1ccccc1)N1CCC2(CC1)CNN(Cc1ccccc1)C2=O [Compound 71, 8-benzoyl-2-benzyl-2,3,8-triazaspiro[4.5]decan-1-one] | 31 |
| O=C(c1ccc2[nH]ccc2c1)N1CCC2(CC1)CCN(Cc1ccccc1)C2=O [Compound 24, 2-benzyl-8-(1H-indole-5-carbonyl)-2,8-diazaspiro[4.5]decan-1-one] | > 50 |
| O=C(c1ccccc1)N1CCC2(CC1)CCN(Cc1ccc(F)c(F)c1F)C2=O [Compound 38, 8-benzoyl-2-(2,3,4-trifluorobenzyl)-2,8-diazaspiro[4.5]decan-1-one] | > 50 |
| O=C(c1ccccc1)N1CCC2(CC1)CN(Cc1ccccc1)C2=O [Compound 73, 7-benzoyl-2-benzyl-2,7-diazaspiro[3.5]nonan-1-one] | 45 |
| O=C(c1ccccc1)N1CCC2(CCCN(Cc3ccccc3)C2=O)CC1 [Compound 74, 9-benzoyl-2-benzyl-2,9-diazaspiro[5.5]undecan-1-one] | > 50 |
| CN1C(=O)N(Cc2ccccc2)C(=O)C12CCN(C(=O)c1ccccc1)CC2 [Compound 2, 8-benzoyl-3-benzyl-1-methyl-1,3,8-triazaspiro [4.5] decane-2,4-dione] | 8 |
| CN1C(=O)N(Cc2ccc(C(F)(F)F)cc2)C(=O)C12CCN(C(=O)c1ccccc1)CC2 [Compound 4, 8-benzoyl-1-methyl-3-(4-(trifluoromethyl)benzyl)-1,3,8-triazaspiro decane-2,4-dione] | 16 |
| O=C(c1ccccc1)N1CCC2(CC1)CCN(Cc1cc(F)cc(F)c1F)C2=O [Compound 53, 8-benzoyl-2-(2,3,5-trifluorobenzyl)-2,8-diazaspiro[4.5]decan-1-one] | > 50 |
| N#Cc1ccc(F)cc1CN1CCC2(CCN(C(=O)c3ccccc3)CC2)C1=O [Compound 57, 2-((8-benzoyl-1-oxo-2,8-diazaspiro[4.5]decan-2-yl)methyl)-4-fluorobenzonitrile] | 25 |
| O=C(c1ccccc1)N1CCC2(C=NN(Cc3cc(F)ccc3F)C2=O)CC1 [Compound 66, 8-benzoyl-2-(2,5-difluorobenzyl)-2,3,8-triazaspiro[4.5]dec-3-en-1-one] | > 50 |
| N#Cc1ccnc(N2CCC3(CCN(Cc4cc(F)ccc4F)C3=O)CC2)n1 [Compound 52, 2-(2-(2,5-difluorobenzyl)-1-oxo-2,8-diazaspiro[4.5]decan-8-yl) pyrimidine-4-carbonitrile] | > 50 |
| O=C(c1ccccc1)N1CCC2(CC1)CCN(Cc1cc(F)cc(F)c1)C2=O [Compound 35, 8-benzoyl-2-(3,5-difluorobenzyl)-2,8-diazaspiro[4.5]decan-1-one] | > 50 |
| O=C(c1ccccc1)N1CCC2(CC1)CCN(Cc1cccc(F)c1)C2=O [Compound 32, 8-benzoyl-2-(3-fluorobenzyl)-2,8-diazaspiro[4.5]decan-1-one] | > 50 |

| SMILES | inhibition at 10 µM [%] |
| --- | --- |
| O=C(c1ccccc1)N1CCC2(CC1)CCN(Cc1ccccn1)C2=O [Compound 14, 8-benzoyl-2-(pyridin-2-ylmethyl)-2,8-diazaspiro[4.5]decan-1-one] | > 50 |
| O=C(c1ccccc1)N1CCC2(CC1)CCN(Cc1ccc(F)cc1F)C2=O [Compound 43, 8-benzoyl-2-(2,4-difluorobenzyl)-2,8-diazaspiro[4.5]decan-1-one] | > 50 |
| CN1C(=O)N(CC2CCCCC2)C(=O)C12CCN(C(=O)c1ccccc1)CC2 [Compound 7, 8-benzoyl-3-(cyclohexylmethyl)-1-methyl-1,3,8-triazaspiro [4.5]decane-2,4-dione] | 34 |
| Cn1ccc2ccc(C(=O)N3CCC4(CC3)CCN(Cc3ccccc3)C4=O)cc21 [Compound 29, 2-benzyl-8-(1-methyl-1H-indole-6-carbonyl)-2,8-diazaspiro[4.5]decan-1-one] | > 50 |
| O=C(c1ccccc1)N1CCC2(CC1)CCN(Cc1ccccc1)C2=O [Compound 9, 8-benzoyl-2-benzyl-2,8-diazaspiro[4.5]decan-1-one] | > 50 |
| O=C(c1ccccc1)N1CCC2(CC1)CCN(Cc1cc(F)c(F)cc1F)C2=O [Compound 41, 8-benzoyl-2-(2,4,5-trifluorobenzyl)-2,8-diazaspiro[4.5]decan-1-one] | > 50 |
| O=C(c1cscn1)N1CCC2(CC1)CCN(Cc1cc(F)ccc1F)C2=O [Compound 75, 2-(2,5-difluorobenzyl)-8-(thiazole-4-carbonyl)-2,8-diazaspiro [4.5]decan-1-one] | > 50 |
| CN1C(=O)N(CC2CCCC2)C(=O)C12CCN(C(=O)c1ccccc1)CC2 [Compound 8, 8-benzoyl-3-(cyclopentylmethyl)-1-methyl-1,3,8-triazaspiro [4.5]decane-2,4-dione] | 22 |
| O=C(c1ccccc1)N1CCC2(C=NN(Cc3cccc(Cl)c3)C2=O)CC1 [Compound 70, 8-benzoyl-2-(3-chlorobenzyl)-2,3,8-triazaspiro[4.5]dec-3-en-1-one] | 44 |
| O=C(c1cccnc1)N1CCC2(CC1)CCN(Cc1ccccc1)C2=O [Compound 17, 2-benzyl-8-nicotinoyl-2,8-diazaspiro[4.5]decan-1-one] | 45 |
| O=C1N(Cc2cc(F)ccc2F)CCC12CCN(c1ncccn1)CC2 [Compound 51, 2-(2,5-difluorobenzyl)-8-(pyrimidin-2-yl)-2,8-diazaspiro[4.5]decan-1-one] | 41 |
| O=C(c1ccccc1)N1CCC2(C=NN(Cc3cccc(F)c3)C2=O)CC1 [Compound 64, 8-benzoyl-2-(3-fluorobenzyl)-2,3,8-triazaspiro[4.5]dec-3-en-1-one] | > 50 |
| O=C(c1ccccc1)N1CCC2(CC1)N=CN(Cc1cc(F)ccc1F)C2=O [Compound 61, 8-benzoyl-3-(2,5-difluorobenzyl)-1,3,8-triazaspiro[4.5]dec-1-en-4-one] | > 50 |
| O=C1N(Cc2ccccc2)CCC12CCN(S(=O)(=O)c1ccccc1)CC2 [Compound 20, 2-benzyl-8-(phenylsulfonyl)-2,8-diazaspiro [4.5]decan-1-one] | 21 |
| O=C(c1ccccc1)N1CCC2(CC1)N=CN(Cc1ccccc1F)C2=O [Compound 60, 8-benzoyl-3-(2-fluorobenzyl)-1,3,8-triazaspiro[4.5]dec-1-en-4-one] | > 50 |
| O=C(c1ccc2cc[nH]c2c1)N1CCC2(CC1)CCN(Cc1ccccc1)C2=O [Compound 25, 2-benzyl-8-(1H-indole-6-carbonyl)-2,8-diazaspiro[4.5]decan-1-one] | > 50 |
| O=C(c1c[nH]c2ccccc12)N1CCC2(CC1)CCN(Cc1ccccc1)C2=O [Compound 23, 2-benzyl-8-(1H-indole-3-carbonyl)-2,8-diazaspiro[4.5]decan-1-one] | > 50 |
| COc1cccc(C(=O)N2CCC3(CC2)CCN(Cc2cc(F)ccc2F)C3=O)c1 [Compound 77, 2-(2,5-difluorobenzyl)-8-(3-methoxybenzoyl)-2,8-diazaspiro[4.5]decan-1-one] | > 50 |
| O=C(c1ccccc1)N1CCC2(CC1)CCN(CC1CCCCC1)C2=O [Compound 11, 8-benzoyl-2-(cyclohexylmethyl)-2,8-diazaspiro[4.5]decan-1-one] | > 50 |
| O=C(c1ccccc1)N1CCC2(CC1)CCN(Cc1ccc(C(F)(F)F)cc1)C2=O [Compound 15, 8-benzoyl-2-(4-(trifluoromethyl)benzyl)-2,8-diazaspiro[4.5]decan-1-one] | > 50 |
